According to patent publication US7358249B2, “Heterocyclic compounds having inhibitory activity against HIV integrase” (Shionogi & Co., Ltd., priority 2002, dated 2008):
“And” between values parts separate entries of the source, which are not always exact repeats. Equal values may be shown once. Where a name gives a salt, the structure may show the parent alone.

Molecular target: HIV integrase (Human immunodeficiency virus type 1 group M subtype B, UniProt P04585)
Experiment: integrase inhibition assay (microtiter plate, substrate DNA / target DNA)
Type: biochemical
Conditions: integrase 30 pmol, incubated at 30° C. for 1 hour, OD at 405 nm; concentration at percent inhibition 50%
Procedure: The inhibitory activities against integrase of the presnt compounds were determined by the assay described below.
(1) Preparation of DNA Solutions
Substrate DNA and target DNA synthesized by Amersham Pharmacia Biotech, which sequences were indicated below, were dissolved in KTE buffer (composition: 100 mM KCl, 1 mM EDTA, 10 mM Tris-HCl (pH 7.6)) at a concentration of 2 pmol/μl and 5 pmol/μl, respectively. The DNA solutions were heated and then slowly cooled so that they were annealed with each complement.
(Sequence of Substrate DNA)
(2) Calculations of the percent inhibitions (IC50 values of test compounds)
Streptavidin, obtained from Vector Laboratories, was dissolved in 0.1 M carbonate buffer (composition: 90 mM Na2CO3, 10 mM NaHCO3) at a concentration of 40 μg/ml. After coating each well of microtiter plates (obtained from NUNC) with 50 μl of the above solution at 4° C. over night, each well was washed twice with PBS (composition: […], 0.27 mM KCl, 0.43 mM Na2HPO4, 0.14 mM KH2PO4) and blocked with 300 μl of 1% skim milk in PBS for 30 min. Additionally, each well was washed twice with PBS and added with 50 μl of the substrate DNA solution (2 pmol/μl). The microtiter plates were kept at room temperature for 30 min. Then, each well was washed twice with PBS and once with H2O.
Subsequently, to the each well prepared above were added 45 μl of the reaction buffer prepared from 12 μl of the buffer (composition: 150 mM MOPS (pH 7.2), 75 mM MnCl2, 50 mM 2-mercaptoethanol, 25% glycerol, 500 μg/ml bovine serum albumin-fraction V), 1 μl of target DNA (5 pmol/μ), and 32 μl of the distilled water. Additionally, 6 μl of either a test compound in DMSO or DMSO for positive control (PC) was mixed with the above reaction buffer, then 9 μl of an integrase solution (30 pmol) was added thereto and the mixture was mixed well. To the well of negative control (NC) was added 9 μl of the integrase dilution buffer (composition: 20 mM MOPS (pH7.2), 400 mM potassium glutamate, 1 mM EDTA, 0.1% NP-40, 20% glycerol, 1 mM DTT, 4 M urea).
The microtiter plates were incubated at 30° C. for 1 hour. The reaction solution was removed and each well was washed twice with PBS. Subsequently, each well of the microtiter plates was filled with 100 μl of anti-digoxigenin antibody labeled with alkaline phosphatase (Sheep Fab fragment: obtained from Boehringer) and incubated at 30° C. for 1 hour. Then, each well was washed twice with 0.05% Tween20 in PBS and once with PBS. Next, 150 μl of the Alkaline phosphatase reaction buffer (composition: 10 mM p-Nitrophenylphosphate (obtained from Vector Laboratories), 5 mM MgCl2, 100 mM NaCl, 100 mM Tris-HCl (pH 9.5)) was added to each well. The microtiter plates were incubated at 30° C. for 2 hours and the reaction was terminated by the addition of 50 μl of 1 N NaOH solution. The optical density (OD) at 405 nm of each well was measured and the percent inhibition was determined by the following expression. The percent inhibition (%)=100[1−{(C abs.−NC abs.)/(PC abs.−NC abs.)}]
C abs.; the OD of the well of the test compound
NC abs.: the OD of the negative control (NC)
PC abs.: the OD of the positive control (PC)
When the percent inhibition (%) is X % at a concentration of x μg/ml and the percent inhibition (%) is Y % at a concentration of y μg/ml, one of which is more than 50% and the other is less than 50%, IC50 can be determined by the following expression. IC50 (μg/ml)=x−{(X−50)(x−y)/(X−Y)}
Compound No. in the Table 1 is the same as compound No. of the above Examples.

SMILES | MIA, IC50
COC(=O)c1cc(C(=O)NC(C)C(=O)OC)c2cc(Cc3ccc(F)cc3)cnc2c1O (stereo not drawn) [Compound I-54, (4-Fluorobenzyl)-8-hydroxy-5-(1-methoxycarbonylethylcarbamoyl)quinoline-7-carboxylic acid methyl ester] | 0.38 µg/mL
CCC(=O)c1ncc2cc(Cc3ccc(F)cc3)cnc2c1O [Compound A-19, 1-[3-(4-fluorobenzyl)-8-hydroxy-1,6-naphthylidin-7-yl]propan-1-one] | 0.12 µg/mL
COC(=O)c1cc(C(=O)N2CCOCC2)c2cc(Cc3ccc(F)cc3)cnc2c1O [Compound I-26, (4-Fluorobenzyl)-8-hydroxy-5-(morpholine-4-carbonyl)quinoline-7-carboxylic acid methyl ester] | 0.37 µg/mL

Same assay, conditions: integrase 30 pmol, incubated at 30° C. for 1 hour, OD at 405 nm; concentration at percent inhibition 50%; read-out: MIA, IC50 (ug/ml) (converted)

SMILES | IC50
COCC(C)OC(=O)c1ncc2cc(Cc3ccc(F)cc3)cnc2c1O (stereo not drawn) [Compound A-79, 3-(4-Fluorobenzyl)-8-hydroxy[1,6]naphthylidine-7-carboxylic acid [2-(1-methoxy)propyl]ester] | 351 nM
COC(=O)c1cc(NC(C)=O)c2cc(Cc3ccc(F)cc3)cnc2c1O [Compound I-10, 5-Acetylamino-3-(4-fluorobenzyl)-8-hydroxyquinoline-7-carboxylic acid methylester] | 1300 nM
COCCNC(=O)c1cc(C(=O)OC)c(O)c2ncc(Cc3ccc(F)cc3)cc12 [Compound I-6] | 412 nM
COC(=O)c1nc(N2CCCCS2(=O)=O)c2cc(Cc3ccc(F)cc3)cnc2c1O [Compound A-22, Methyl 3-(4-fluorobenzyl)-5-(1,1-dioxido-1,2-thiazinan-2-yl)-8-hydroxy-1,6-naphthylidine-7-carboxylate] | 427 nM
COC(=O)c1cc(C(=O)NCCCO)c2cc(Cc3ccc(F)cc3)cnc2c1O [Compound I-58, 3-(4-Fluorobenzyl)-8-hydroxy-5-(3-hydroxypropylcarbamoyl)quinoline-7-carboxylic acid methyl ester] | 388 nM
COC(=O)c1nc(NC(=O)C(=O)N(C)C)c2cc(Cc3ccc(F)cc3)cnc2c1O [Compound A-115, 5-[[(Dimethylamino)oxalyl]amino]-3-(4-fluorobenzyl)-8-hydroxy[1,6]naphthylidine-7-carboxylic acid methyl ester] | 422 nM
COC(=O)c1cc(NC=O)c2cc(Cc3ccc(F)cc3)cnc2c1O [Compound I-13, 3-(4-Fluorobenzyl)-5-formylamino-8-hydroxyquinoline-7-carboxylic acid methyl ester] | 1040 nM

Tested on: not given
Experiment: not given
Conditions: not given

SMILES | melting point
COCC(C)OC(=O)c1ncc2cc(Cc3ccc(F)cc3)cnc2c1O (stereo not drawn) [Compound A-79, 3-(4-Fluorobenzyl)-8-hydroxy[1,6]naphthylidine-7-carboxylic acid [2-(1-methoxy)propyl]ester] | 130 to 131 °C
COC(=O)c1cc(NC(C)=O)c2cc(Cc3ccc(F)cc3)cnc2c1O [Compound I-10, 5-Acetylamino-3-(4-fluorobenzyl)-8-hydroxyquinoline-7-carboxylic acid methylester] | 243 to 245 °C
COCCNC(=O)c1cc(C(=O)OC)c(O)c2ncc(Cc3ccc(F)cc3)cc12 [Compound I-6] | 152 to 154 °C
COC(=O)c1cc(C(=O)Nc2nccs2)c2cc(Cc3ccc(F)cc3)cnc2c1O | 258 to 259 °C
COCCNC(=O)c1nc(NS(C)(=O)=O)c2cc(Cc3ccc(F)cc3)cnc2c1O | 241 to 242 °C
COC(=O)c1cc(C(=O)Nc2ccncn2)c2cc(Cc3ccc(F)cc3)cnc2c1O | 241 to 242 °C
COC(=O)c1cc(C(=O)N2CCSCC2)c2cc(Cc3ccc(F)cc3)cnc2c1O | 184 to 185 °C
COC(=O)c1cc(C(N)=O)c2cc(Cc3ccc(F)cc3)cnc2c1OC(C)=O | 206 °C
COC(=O)c1cc(C(=O)OCc2ccccc2)c2cc(Cc3ccc(F)cc3)cnc2c1O | 131 to 133 °C
COC(=O)c1cc(C(=O)NCC(N)=O)c2cc(Cc3ccc(F)cc3)cnc2c1O | 247 to 248 °C
COC(=O)c1cc(NC(=O)COc2ccccc2)c2cc(Cc3ccc(F)cc3)cnc2c1O | 172 to 173 °C
CN(C)NC(=O)c1nc(C#CCNS(C)(=O)=O)c2cc(Cc3ccc(F)cc3)cnc2c1O | 229 to 230 °C (dec.)
COC(=O)c1cc(NCC(C)C)c2cc(Cc3ccc(F)cc3)cnc2c1O | 249 to 251 °C
COC(=O)c1cc(NC(=O)c2ccnc(C)c2)c2cc(Cc3ccc(F)cc3)cnc2c1O (as salt: salt) | 229 to 230 °C
COCCOC(=O)c1cc(C(=O)O)c2cc(Cc3ccc(F)cc3)cnc2c1O | 234 to 235 °C (dec.)
COC(=O)c1cc(C(=O)NCCF)c2cc(Cc3ccc(F)cc3)cnc2c1O | 216 to 217 °C
COC(=O)c1cc(C(=O)NCCN2CCOCC2)c2cc(Cc3ccc(F)cc3)cnc2c1O | 198 to 199 °C
COC(=O)c1cc(C(=O)N2CCC(O)CC2)c2cc(Cc3ccc(F)cc3)cnc2c1O | 196 to 197 °C
COC(=O)c1cc(C(=O)N2CCCOCC2)c2cc(Cc3ccc(F)cc3)cnc2c1O | 136 to 137 °C
COC(=O)c1cc(CC#N)c2cc(Cc3ccc(F)cc3)cnc2c1O | 173 to 175 °C
COC(=O)c1cc(C(=O)NC2CCN(C(C)=O)CC2)c2cc(Cc3ccc(F)cc3)cnc2c1O | 214 to 215 °C
CNNC(=O)c1cc(C(=O)OC)c(O)c2ncc(Cc3ccc(F)cc3)cc12 | 188 to 189 °C

SMILES | melting point
COC(=O)c1cc(C(=O)NN2CCOCC2)c2cc(Cc3ccc(F)cc3)cnc2c1O | > 250 °C
CN(C)NC(=O)c1nc(-c2ccc(CO)cc2)c2cc(Cc3ccc(F)cc3)cnc2c1O | 219 to 221 °C
COC(=O)c1cc(C=CC(=O)O)c2cc(Cc3ccc(F)cc3)cnc2c1O | 235 to 237 °C
CCNC(=O)Nc1cc(C(=O)OC)c(O)c2ncc(Cc3ccc(F)cc3)cc12 | 280 to 282 °C
CNC(=O)c1cc(C(=O)O)c2cc(Cc3ccc(F)cc3)cnc2c1O | 203 to 205 °C
COC(=O)c1nc(NS(=O)(=O)NC(=O)OC(C)C)c2cc(Cc3ccc(F)cc3)cnc2c1O | 170 to 172 °C
COCCCC(=O)c1ncc2cc(Cc3ccc(F)cc3)cnc2c1O | 117 to 118 °C
COC(=O)c1cc(C(=O)NNCC(=O)N(C)C)c2cc(Cc3ccc(F)cc3)cnc2c1O | 170 to 172 °C
COC(=O)c1cc(C(=O)NC2CCCC2)c2cc(Cc3ccc(F)cc3)cnc2c1O | 221 to 222 °C
COC(=O)CNC(=O)c1cc(C(=O)OC)c(O)c2ncc(Cc3ccc(F)cc3)cc12 | 209 to 210 °C
NC(=O)c1cc(C(=O)O)c2cc(Cc3ccc(F)cc3)cnc2c1O | 212 to 213 °C
CN(C)C(=O)c1cc(C(=O)O)c2cc(Cc3ccc(F)cc3)cnc2c1O | 214.5 to 215.5 °C
COC(=O)c1cc(C(=O)NCCNC(C)=O)c2cc(Cc3ccc(F)cc3)cnc2c1O | 251 to 253 °C
COC(=O)c1cc(CC(N)=O)c2cc(Cc3ccc(F)cc3)cnc2c1O | 209 to 211 °C
COC(=O)c1cc(C(=O)O)c2cc(Cc3ccc(F)cc3)cnc2c1O.NCCN | 164 °C
COC(=O)C=Cc1cc(C(=O)OC)c(O)c2ncc(Cc3ccc(F)cc3)cc12 | 139 to 141 °C
COC(=O)c1cc(Br)c2cc(Cc3ccc(F)cc3)cnc2c1O | 152 °C
COC(=O)c1cc(C(=O)NN(C)C)c2cc(Cc3ccc(F)cc3)cnc2c1O | 198 to 199 °C
COC(=O)c1nc(N2CCCCS2(=O)=O)c2cc(Cc3ccccc3)cnc2c1O | 183 to 185 °C and 186 °C
COC(=O)c1cc(C(C)=O)c2cc(Cc3ccc(F)cc3)cnc2c1O | 166 to 168 °C
COC(=O)c1nc(N2CCCC2=O)c2cc(Cc3ccc(F)cc3)cnc2c1O | 260 to 262 °C
COC(=O)c1cc(NC(=O)c2ccccc2Cl)c2cc(Cc3ccc(F)cc3)cnc2c1O | 230 to 232 °C
